What all share (type): ADME, organism-based
Data set [1] can be described thus: Volume of distribution at steady state in ICR mouse at 1 mg/kg, iv measured over 24 hrs by LC-MS/MS analysis. The following applies: in vivo, read-out: Vdss.
Data set [2] can be described thus: AUC (0 to last) in ICR mouse at 5 mg/kg, po measured over 24 hrs by LC-MS/MS analysis. On the set-up: route oral, dose 5 mg/kg, time >24. The following applies: in vivo.
Data set [3] in a line: Oral bioavailability in ICR mouse at 5 mg/kg measured over 24 hrs by LC-MS/MS analysis. The settings on record: in vivo.
Data set [4] in a line: AUC (0 to last) in ICR mouse at 1 mg/kg, iv measured over 24 hrs by LC-MS/MS analysis. The following applies: in vivo. On the set-up: route intravenous, dose 1 mg/kg, time >24.
Data set [5] can be described thus: Clearance in ICR mouse at 1 mg/kg, iv measured over 24 hrs by LC-MS/MS analysis. The following applies: in vivo.
A short description of data set [6]: Cmax in ICR mouse at 1 mg/kg, iv measured over 24 hrs by LC-MS/MS analysis. On the set-up: route intravenous, dose 1 mg/kg, time >24. The settings on record: in vivo.
A short description of data set [7]: Cmax in ICR mouse at 5 mg/kg, po measured over 24 hrs by LC-MS/MS analysis. Also noted: route oral, dose 5 mg/kg, time >24. The settings on record: in vivo.

As for `Cc1c(Nc2nc3c(s2)CCCC3O)cc(Cl)cc1OC1CCN(C(=O)CC(C(F)(F)F)C(F)(F)F)CC1` (racemic), in data set [1], the Vd came to 2.95 L/kg. Besides, the AUC(0-t) at 24 h was determined as 599 ng·h/mL in data set [2] and 634 ng·h/mL in data set [4]. This molecule yielded a bioavailability in data set [3] of 18.9%. This molecule also returned a clearance in data set [5] of 26.6 mL/min/kg. In addition, the Cmax came out at 590 ng/mL in data set [6] and 213 ng/mL in data set [7].

As usually defined, the AUC(0-t) is exposure summed from dosing to a finite time, without extrapolation to infinity. A low value points to low exposure. As usually defined, the bioavailability is dose-corrected exposure relative to a reference, in per cent. Read a low bioavailability as poor availability. The clearance is the volume of plasma or blood freed of the substance per unit of time. In general, Cmax refers to the peak of the concentration-time curve.
